Drawing on the METLIN SMRT retention time set (Domingo-Almenara et al. 2019), this text covers RP-LC retention time for 79 compounds.

This data set in a line: gradient 5% acetonitrile 3 min, to 50% in 2 min, to 85% in 15 min, held 3 min, 100 µL/min. The note with it: column: Zorbax Extend-C18 2.1 x 50 mm; eluents: water / acetonitrile, 0.1% formic acid. The method, boiled down: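 Values are retention times taken from adduct peaks that software picked and an analyst inspected. The pure standards were run as mixtures of ~100 molecules on HPLC linked to a quadrupole time-of-flight mass spectrometer, in positive and negative ionization mode. A Zorbax Extend-C18 column (2.1 × 50 mm, 1.8 μm) was used at 100 μL/min with water and acetonitrile, each including 0.1% formic acid.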
`Cc1ccc(S(=O)(=O)N2CC3CN(C(=O)c4ccc5c(c4)OCO5)CC(C2)O3)cc1` registered an RP-LC retention time of 804 s.

`O=C(CN1CCN(C(=O)Cc2cccs2)CC1)c1ccco1` had an RP-LC retention time of 538 s.

As for `Cc1cccc(-c2noc(CSc3nc4cc5c(cc4c(=O)n3CC3CCCO3)OCO5)n2)c1` (centres undefined), the RP-LC retention time came to 1170 s.

Regarding `O=C(/C=C/c1ccccc1Cl)c1ccc(O)cc1`, the RP-LC retention time turned out to be 944 s.

Compound `Cc1ccc(C)c(N2CCN(S(=O)(=O)c3c(C)sc(C)c3-c3n[nH]c(C)c3C)CC2)c1` registered an RP-LC retention time of 1190 s.

For `COc1cc(NC(=O)c2cnc(-c3ccccc3)nc2-c2ccncc2)cc(OC)c1`, the RP-LC retention time turned out to be 879 s.

`CCOC(=O)Cc1c(CN2CCN(C)CC2)c2ccccc2n1Cc1ccccc1` showed an RP-LC retention time of 681 s.

Compound `O=C(c1ccc(OCC2CCCN2C(=O)c2ccc(F)cc2)cc1)N1CCCC1` (centres undefined) came in with an RP-LC retention time of 829 s.

The compound `CC(C)c1nnc2n1CCN(C(=O)c1nccc3ccccc13)C2` gave an RP-LC retention time of 605 s.

In turn, `COc1ccc2cc(C(=O)N3CCCN(c4cc(=O)n(C)c(=O)n4C)CC3)[nH]c2c1` yielded an RP-LC retention time of 688 s.

Compound `Cc1ccc(CC(=O)N2CCc3nc(-c4ccc(Cl)cc4)ncc3C2)cc1` displayed an RP-LC retention time of 1150 s.

Compound `COc1ccc(CCNC(=O)Nc2nnc(SC)s2)cc1` gave an RP-LC retention time of 718 s.

`Nc1cc(C(=O)Nc2ccccc2F)ccc1N1CC2CC(C1)c1cccc(=O)n1C2` (centres undefined) gave an RP-LC retention time of 740 s.

As to `Cc1ccc(C(=O)NC2CCN(c3ncnc4c3CCC4)C2)s1` (centres undefined), the RP-LC retention time turned out to be 606 s.

For `CCCNC(=O)C1CCN(c2ccc(SCC(=O)Nc3cccc(C(C)C)c3)nn2)CC1`, the RP-LC retention time was 728 s.

As for `COc1ccc2c(c1)C1(CCN(C(=O)NCc3ccc(F)cc3)C1)C(=O)N2` (centres undefined), the RP-LC retention time was 697 s.

As for `CCn1ccc2c(cc(C(=O)Nc3ccc(C)c(F)c3)n2C)c1=O`, the RP-LC retention time is 830 s.

The compound `Cc1cc(Cl)ccc1NS(=O)(=O)c1cc(-c2[nH]ncc2C(=O)N2CCCC2)oc1C` came in with an RP-LC retention time of 772 s.

Compound `O=C(CCc1ccccc1)N1CCN(c2nc(CN3CCOCC3)cs2)CC1` showed an RP-LC retention time of 624 s.

`Cn1c(=O)c2c(ncn2CC(=O)N2CCCn3nc(-c4cccc(F)c4)cc3C2)n(C)c1=O` displayed an RP-LC retention time of 677 s.

`CCCCNC(=O)C(=O)NCC(c1ccc2c(c1)OCO2)N1CCOCC1` (centres undefined) yielded an RP-LC retention time of 628 s.

As to `O=C(Cc1cc(-c2ccc3c(c2)OCO3)on1)Nc1ccc(F)c(F)c1F`, the RP-LC retention time was 888 s.

In the case of `Cc1cn(-c2ccc(SCC(=O)NCc3ccc4c(c3)OCO4)nn2)cn1`, the RP-LC retention time is 558 s.

`CCn1ccc2c(cc(C(=O)Nc3cc(F)ccc3F)n2C)c1=O` gave an RP-LC retention time of 754 s.

The compound `CS(=O)(=O)N1CCC(OC2CCN(C(=O)NCc3ccc(F)cc3)CC2)CC1` registered an RP-LC retention time of 730 s.

As for `CCS(=O)(=O)Nc1ccc(-c2noc(COc3ccccc3)n2)cc1`, the RP-LC retention time amounted to 923 s.

With `O=C(CN1C(=O)NC(c2ccccc2Cl)C2=C1COC2=O)Nc1ccc(F)c(Cl)c1` (centres undefined), the RP-LC retention time stood at 837 s.

As to `COc1ccc(OC)c(-c2csc(-c3nnn(-c4ccc(F)cc4)c3N)n2)c1`, the RP-LC retention time came to 1090 s.

The compound `O=C(NCCN1CCOCC1)C(=O)Nc1ccccc1Cl` came in with an RP-LC retention time of 549 s.

In turn, `COc1ccc(CC(=O)N2C[C@@H]3C[C@H]2C[C@@H]3NS(C)(=O)=O)cc1` had an RP-LC retention time of 647 s.

In turn, `COc1ccc(C2C(C(=O)OC(C)C)=C(C)NC3=C2C(=O)CCC3)c(OC)c1OC` (centres undefined) returned an RP-LC retention time of 778 s.

For `COc1cc(-c2oc3cc(O)ccc3c(=O)c2O)ccc1O`, the RP-LC retention time came out at 687 s.

`O=S(=O)(NCc1ccccc1C(F)(F)F)c1c[nH]c2ncccc12` displayed an RP-LC retention time of 785 s.

As for `Cc1cc(C)c2c(N3CCOCC3)nc(C(=O)NCC3CCCCC3)nc2n1`, the RP-LC retention time worked out at 678 s.

In turn, `O=C(Cc1nnc(-c2cnccn2)o1)Nc1cccc(C(F)(F)F)c1` registered an RP-LC retention time of 780 s.

For the compound `O=C(Cn1nc2c(N3CCCCCC3)nccn2c1=O)Nc1ccccc1F`, the RP-LC retention time amounted to 682 s.

Take `Cc1ccc(Sc2cc3c(cc2NC(=O)c2ccco2)n(C)c(=O)n3C)cc1`: the RP-LC retention time worked out at 988 s.

`O=C(NCc1cccc(Br)c1)C1CCCN(c2cnc3nccnc3c2)C1` (centres undefined) returned an RP-LC retention time of 739 s.

As for `Cc1ccc(-c2nnc(-c3nc(NCCc4c(C)noc4C)c4ccccc4n3)o2)cc1`, the RP-LC retention time is 955 s.

Compound `CCc1ccc(NC(=O)C2CCN(S(=O)(=O)c3cn(C)cn3)CC2)cc1` gave an RP-LC retention time of 734 s.

Regarding `CC(C)Cn1c(=O)c(N2CCN(C(=O)NCCc3ccccc3)CC2)nc2ccncc21`, the RP-LC retention time stood at 668 s.

Compound `CC(C)Oc1ccc(-c2noc(-c3nn(-c4cccc(F)c4)ccc3=O)n2)cc1` yielded an RP-LC retention time of 1010 s.

`Cn1cc(C(=O)Nc2ccc3c(c2)CCC3)c(S(=O)(=O)N2CCCCC2)n1`: the RP-LC retention time was 1090 s.

As for `CNC(=O)C1CCCN(c2nc3ncn(CC(=O)Nc4ccc(C)cc4C)c(=O)c3s2)C1` (centres undefined), the RP-LC retention time amounted to 646 s.

Compound `CN1C(=O)C(CC(=O)NCc2ccccn2)Sc2ncccc21` (centres undefined) showed an RP-LC retention time of 762 s.

`COC(=O)c1ccc(NC(=O)N2CCC3(CC2)NC(=O)c2ccccc2O3)cc1` displayed an RP-LC retention time of 726 s.

Turning to `Cn1cc(CN2CCC(C(=O)NCC3CCN(Cc4cccc(F)c4)CC3)CC2)c2ccccc21`, the RP-LC retention time came to 572 s.

In turn, `COc1cn(-c2ccc(F)cc2)nc1C(=O)NCCC1=CCCCC1` registered an RP-LC retention time of 942 s.

`CCCC[C@@]1(C2CCCC2)Cc2cc(OCC(=O)O)c(Cl)c(Cl)c2C1=O` displayed an RP-LC retention time of 1320 s.

As to `O=C(Cn1c(=O)c2cc(-c3ccco3)nn2c2ncccc21)Nc1ccc(F)cc1F`, the RP-LC retention time worked out at 840 s.

Regarding `Cc1ccc(Oc2ccc(NS(=O)(=O)c3cccs3)cc2)nn1`, the RP-LC retention time worked out at 687 s.

In turn, `O=C(Nc1cccnc1)C1CCN(S(=O)(=O)Cc2ccccc2)CC1` had an RP-LC retention time of 626 s.

With `COc1ccc(OC)c2sc(N3CCN(S(=O)(=O)c4cccs4)CC3)nc12`, the RP-LC retention time was 896 s.

Consider `Cc1cccc(S(=O)(=O)N2CCc3c(c(-c4nnc(-c5ccc(F)cc5)o4)nn3C)C2)c1`, for which the RP-LC retention time came out at 955 s.

`CC(C)Cn1c(-c2cccc(C(=O)NCC3CCCO3)c2)nc2cccnc21` (centres undefined) had an RP-LC retention time of 699 s.

As to `O=C(C1CCN(S(=O)(=O)c2cc(-c3noc(C4CC4)n3)cs2)CC1)N1CCc2ccccc2C1`, the RP-LC retention time worked out at 1020 s.

The compound `COCc1cn(C2CN(C(=O)c3ccc(OC)c(F)c3)C2)nn1` registered an RP-LC retention time of 649 s.

`O=C(O)CCCC(=O)Nc1nc(-c2cccc3ccccc23)cs1` came in with an RP-LC retention time of 818 s.

Regarding `COc1ccccc1CNc1ncc(C(=O)O)c(C(C)C)n1`, the RP-LC retention time came to 898 s.

`O=C1CN(c2ncnc3[nH]ncc23)CC(=O)N1CCc1ccccc1` returned an RP-LC retention time of 662 s.

`CC(C)c1noc(C2(NC(=O)c3ccoc3)CCCCC2)n1` showed an RP-LC retention time of 867 s.

The compound `Cc1ccc(CNS(=O)(=O)c2cc(-c3[nH]ncc3C(=O)N(C)C)oc2C)cc1` returned an RP-LC retention time of 712 s.

In turn, `Cc1cc(-c2c(C)sc(C)c2S(=O)(=O)NC2CCCc3ccccc32)n[nH]1` (centres undefined) came in with an RP-LC retention time of 1120 s.

Consider `COc1ccc(CN(C)Cc2cc(=O)n3ccc(C)cc3n2)cc1OC`, for which the RP-LC retention time stood at 587 s.

The compound `CCc1nn2c(=O)cc(CSc3nnc(-c4cccc(C)c4)o3)nc2s1` returned an RP-LC retention time of 800 s.

As to `CCN(C(=O)Cc1c(C(=O)O)c(C)cn1CC)c1ccccc1`, the RP-LC retention time came out at 907 s.

For `COc1ccc(F)cc1S(=O)(=O)N1CC(c2nc(-c3ccsc3)nn2C)C1`, the RP-LC retention time turned out to be 841 s.

Turning to `COc1ccccc1CNC(=O)C1CCN(S(=O)(=O)c2ccc3[nH]c(=O)ccc3c2)CC1`, the RP-LC retention time is 714 s.

`CC1CCCN(S(=O)(=O)c2ccc(-n3cnc(C(=O)NCC4CC4)c3)nc2)C1` (centres undefined) registered an RP-LC retention time of 902 s.

In turn, `CCc1nnc(-c2ccc(NC(=O)c3cc4ccccc4o3)cc2)o1` registered an RP-LC retention time of 826 s.

Compound `Cc1ncn(CC(=O)Nc2cccc(Cl)c2)c(=O)c1C` had an RP-LC retention time of 705 s.

In the case of `COc1ccc(S(=O)(=O)N2CCc3nc(-c4ccc(Cl)cc4)ncc3C2)cc1`, the RP-LC retention time came to 1100 s.

With `CCN1C(=O)c2cccnc2Sc2cc(NC(=O)COc3ccc(F)c(F)c3)ccc21`, the RP-LC retention time turned out to be 882 s.

Compound `Cc1ccc(-c2nc(N3CC(C)OC(C)C3)c3ccccc3n2)cc1` (centres undefined) yielded an RP-LC retention time of 763 s.

Turning to `O=C1NCCCCCN(C(=O)c2cnccn2)[C@H]2CCC[C@@H]12`, the RP-LC retention time is 620 s.

With `O=C(NCc1ccc(F)cc1Cl)C1CCCN(c2nccnc2Sc2ccccc2)C1` (centres undefined), the RP-LC retention time is 1100 s.

Regarding `CN(C)c1nc2ncn3c(=O)n(CC(=O)Nc4ccc(Cl)cc4F)nc3c2s1`, the RP-LC retention time was found to be 748 s.

As for `CCOc1ccc(-n2c(CN3CCN(C(=O)NCCC(C)C)CC3)nc3cccnc32)cc1`, the RP-LC retention time amounted to 684 s.

`CCN1C(=O)c2c(C(=O)NCCc3ccc(C)cc3)ncn2CC1(C)C(=O)NC1CCCC1` (centres undefined) displayed an RP-LC retention time of 779 s.
